Measured values: patent US20060282906A1, “Non-transgenic rodent model of Alzheimer's disease” (priority 2005, published 2006)
Marks after values point to notes of the source that are not given here. Where no end group is shown, it is not given here.

Legend:
[1] = test system: Male Wistar rats; assay: Immunohistochemistry of rat brain sections, grading scale of staining size and intensity; format: in vivo; parameters: key to NKκB(p65) immunostaining signal / COX-2 immunostaining signal / GFAP immunostaining signal / OX-6 immunostaining signal / APP immunostaining signal / Tau-2 immunostaining signal / TNFα immunostaining signal / Cas-3 immunostaining signal: n.s.: no positive staining; +: moderate immunostaining signal; ++: strong immunostaining signal; +++: strongest immunostaining signal
Protocol: (§1) All rats were anesthetized using 40 mg/kg of pentobarbital (Somnotol; MTC Pharmaceuticals, Cambridge, Ontario) intraperitoneally. Body temperature was maintained at 37° C. Aβ(25-35) (50 nmol in 10 μL of saline) was injected bilaterally into the lateral ventricles. Aβ(25-35) was prepared according to established methods (Sigurdsson, et al. (1997) supra). Aβ(25-35) (50 nmol in 10 μL of saline at a rate of 1 μL/minute) was injected bilaterally into the lateral ventricles via a stainless-steel cannula (23-gauge; anterior/posterior −0.8, medial/lateral ±1.4, and dorsal/ventral −4.0 below dura). Two endothelin injections (6 pmol in 3 μL of saline), 1 mm apart, were made into the right striatum (Sigurdsson, et al. (1997) supra). Sham procedures involved all the surgical steps without injections of Aβ(25-35) or endothelin. After wound suture, all rats received 40 mg/kg of buprenorphine intramuscularly and were allowed to recover from surgery for 7 days.
(§2) Twenty-one days after surgery, all animals were euthanized via pentobarbital overdose and perfused transaortically first with saline followed by 4% formaldehyde (pH 7.4). The brains were removed and cryoprotected in 30% sucrose for 36 hours at 4° C. Coronal sections (30 pm) were cut using a cryostat.
(§3) Free-floating sections from rat brains (n=5 for each group) were treated with 0.03% hydrogen peroxide and blocked with 3 mL of horse or rabbit serum (VECTASTAIN® Elite, Vector Laboratories, Burlingame, Calif.). The following primary antibodies were diluted in filtered phosphate-buffered saline: APPa4 mouse monoclonal (Chemicon International Inc, Temecula, Calif.; 1:1000), GFAP mouse monoclonal (Sigma-Aldrich, St Louis, Mo.; 1:1000), OX-6 mouse monoclonal (Serotec, Inc., Raleigh, N.C.; 1:1000), Tau-2 mouse monoclonal (Sigma-Aldrich, St Louis, Mo.; 1:10000), NFκB(p65) goat polyclonal (Santa Cruz Biotechnologies, Santa Cruz, Calif.; 1:1000), IL-1β goat polyclonal (Santa Cruz Biotechnologies, Santa Cruz, Calif.; 1:1000), and TNF-α-M18 goat polyclonal (Santa Cruz Biotechnologies, Santa Cruz, Calif.; 1:1000). APP-, Tau-2-, GFAP-, and OX-6-stained sections were incubated with 3 mL of horse biotinylated anti-mouse secondary antibody and horse serum. NFκB(p65), IL-1β, and TNF-α-stained sections were incubated with 3 mL of biotinylated rabbit anti-goat secondary antibody and rabbit serum. Sections were then incubated in 3 mL of avidin-biotin complex followed by 0.05% diaminobenzidine. Sections were washed, air-dried, cleared in xylene, and cover-slipped. Brains to be compared were processed at the same time using the same solutions to reduce variability in immunostaining caused by separate processing.
(§4) Digital photographs were taken using a light microscope (Leitz Diaplan). An investigator was blinded to the identification of the rat sections while analysis was being performed. All immunohistochemical data that were compared was processed at the same time to reduce any variation caused by differences of intensity. A grading scale was based on both observable size and intensity of staining (n=5 for each group). Also, relative optical density measurements and numbers of stained cells or accumulations were measured in entire brain areas for quantitative analysis and statistically analyzed with ANOVA and Tukey post hoc test with a significance level of P<0.05.

[2] = test system: rats; assay: Barnes circular platform test; format: in vivo, rat; details: 50 nmol intracerebroventricular; memory test trial (day 8) vs last trial of training (day −1); P<0.01
Protocol: All rats were anesthetized using 40 mg/kg of pentobarbital (Somnotol; MTC Pharmaceuticals, Cambridge, Ontario) intraperitoneally. Body temperature was maintained at 37° C. Aβ(25-35) (50 nmol in 10 μL of saline) was injected bilaterally into the lateral ventricles. Aβ(25-35) was prepared according to established methods (Sigurdsson, et al. (1997) supra). […] (1997) supra). […] After wound suture, all rats received […] of buprenorphine intramuscularly and were allowed to recover from surgery for 7 days. Learning and memory deficits were assessed using the Barnes circular platform. There are twenty holes evenly located along the border of circular platform with a hidden escape box beneath one of the holes. The circular platform is equipped with colored cues on the surrounding wall. A bright light combined with wind from a fan hung on the ceiling above the platform provides the incentive for the rats to find the hidden box and enter the escape hole. During each trial, the rats were initially placed in the center of the platform under an inverted box, then the box was lifted up and the rat is allowed to find the hole for up to 4 minutes. The latency (time to enter the escape hole) was recorded during the trial. There was a training period (trials 1-14) performed at day −7 to day −1 before surgery (day 0). PDTC or vehicle treatment was given 30 minutes before Aβ(25-35) injections and from days 1 to 7 post-surgery. Spatial memory was then tested on day 8 (trial 15) with the escape hole placed in the same location. Spatial learning was examined by re-testing (re-acquisition) from days 9 to 15 (trials 16-29) with the escape box relocated at […] from the original location. Digital photographs were taken using a light microscope (Leitz Diaplan). […] Also, relative optical density measurements and numbers of stained cells or accumulations were measured in entire brain areas for quantitative analysis and statistically analyzed with ANOVA and Tukey post hoc test with a significance level of P<0.05. […] The staircase data are expressed as the mean±SEM. […] Data are expressed as mean±SEM. […]

[3] = test system: Male Wistar rats; assay: Congo Red histochemistry of rat brain sections; format: in vivo; details: Aβ: lesions in fornix, anterior hippocampus, CA1 hippocampus; endothelin: infarct
Protocol: Male Wistar rats (250 to 300 grams; Charles River, Montreal, Quebec) were divided into 4 groups: intracerebroventricular injections of Aβ(25-35) (BACHEM, Torrance, Calif.); endothelin injections into the right striatum; both Aβ(25-35) and striatal endothelin injections; and sham procedures. The Aβ(25-35) fragment was used to reduce the possibility of rapid coagulation and to allow diffusion of the peptide into the brain.
All rats were anesthetized using 40 mg/kg of pentobarbital (Somnotol; MTC Pharmaceuticals, Cambridge, Ontario) intraperitoneally. Body temperature was maintained at 37° C. Aβ(25-35) (50 nmol in 10 μL of saline) was injected bilaterally into the lateral ventricles. Aβ(25-35) was prepared according to established methods (Sigurdsson, et al. (1997) supra). Aβ(25-35) (50 nmol in 10 μL of saline at a rate of 1 μL/minute) was injected bilaterally into the lateral ventricles via a stainless-steel cannula (23-gauge; anterior/posterior −0.8, medial/lateral ±1.4, and dorsal/ventral −4.0 below dura). Two endothelin injections (6 pmol in 3 μL of saline), 1 mm apart, were made into the right striatum (Sigurdsson, et al. (1997) supra). Sham procedures involved all the surgical steps without injections of Aβ(25-35) or endothelin. After wound suture, all rats received […] of buprenorphine intramuscularly and were allowed to recover from surgery for 7 days. […]

[4] = test system: Male Wistar rats; assay: Quantitative immunohistochemistry: relative optical density and numbers of stained cells or accumulations; format: in vivo, rat; details: for APP Accumulation / GFAP Intensity / OX6 Intensity: vehicle (not in brackets), mean ± SEM, n = 4
Protocol: as §1, §2, §3, §4

GSNKGAIIGLM [Aβ, β-amyloid fragment (25-35), 50 nmol injected bilaterally into the lateral ventricles of rats]
APP immunostaining signal ([1]; Corpus Callosum): + | COX-2 immunostaining signal ([1]; Corpus Callosum): + | GFAP immunostaining signal ([1]; Corpus Callosum): + | NKκB(p65) immunostaining signal ([1]; Corpus Callosum): + | OX-6 immunostaining signal ([1]; Corpus Callosum): + | TNFα immunostaining signal ([1]; Corpus Callosum): + | Tau-2 immunostaining signal ([1]; Corpus Callosum): + | APP immunostaining signal ([1]; Cortex): + | COX-2 immunostaining signal ([1]; Cortex): + | GFAP immunostaining signal ([1]; Cortex): + | NKκB(p65) immunostaining signal ([1]; Cortex): + | OX-6 immunostaining signal ([1]; Cortex): + | TNFα immunostaining signal ([1]; Cortex): + | Tau-2 immunostaining signal ([1]; Cortex): + | APP immunostaining signal ([1]; Hippocampus): + | COX-2 immunostaining signal ([1]; Hippocampus): + | GFAP immunostaining signal ([1]; Hippocampus): + | NKκB(p65) immunostaining signal ([1]; Hippocampus): + | OX-6 immunostaining signal ([1]; Hippocampus): + | Tau-2 immunostaining signal ([1]; Hippocampus): + | APP immunostaining signal ([1]; Hypothalamus): + | NKκB(p65) immunostaining signal ([1]; Hypothalamus): + | TNFα immunostaining signal ([1]; Hypothalamus): + | APP immunostaining signal ([1]; Striatum (right)): n.s. | COX-2 immunostaining signal ([1]; Striatum (right)): n.s. | Cas-3 immunostaining signal ([1]; Striatum (right)): n.s. | GFAP immunostaining signal ([1]; Striatum (right)): + | NKκB(p65) immunostaining signal ([1]; Striatum (right)): n.s. | OX-6 immunostaining signal ([1]; Striatum (right)): n.s. | TNFα immunostaining signal ([1]; Striatum (right)): n.s. | OX-6 immunostaining signal ([1]; Thalamus (right)): + | TNFα immunostaining signal ([1]; Thalamus (right)): + | latency (time to enter the escape hole) [2]: increased latency | Congo Red staining [3]: stained amyloid positive with Congo Red | average numbers of OX-6-stained microglia ([4]; CA1 of the hippocampus): 13.4±5.1 | Average intensity measurements for GFAP ([4]; Hippocampus): 162.9±8.7 | APP Accumulation ([4]; Left Cortex): 36.8 ± 7.8^y | GFAP Intensity ([4]; Left Hippocampus): 167.5 ± 5.2 | OX6 Intensity ([4]; Left Hippocampus): 116.2 ± 6.7 | APP Accumulation ([4]; Right Cortex): 37.8 ± 5.4^y | GFAP Intensity ([4]; Right Hippocampus): 166.5 ± 4.2 | OX6 Intensity ([4]; Right Hippocampus): 119.3 ± 9.1
